Data set [1] addresses Tyrosine-protein kinase ABL1 (Homo sapiens, UniProt P00519).
Description: Inhibition of v-Abl tyrosine kinase.
The target of data set [2] is cAMP-dependent protein kinase (PKA) (Homo sapiens, UniProt P22694+P17612+P22612). Kind of data set: Inhibition of protein kinase A. Type of data set: protein assay, unidentified.
For data set [3], the target named is Protein kinase C delta type (Homo sapiens, UniProt Q05655). Kind of data set: Inhibition of protein kinase C delta.
Data set [4] has as its target Protein kinase C alpha type (Homo sapiens, UniProt P17252). Put plainly: Inhibition of protein kinase C alpha.
The target in data set [5] is Epidermal growth factor receptor (Homo sapiens, UniProt P00533).
Sequence of Epidermal growth factor receptor (P00533 whole entry): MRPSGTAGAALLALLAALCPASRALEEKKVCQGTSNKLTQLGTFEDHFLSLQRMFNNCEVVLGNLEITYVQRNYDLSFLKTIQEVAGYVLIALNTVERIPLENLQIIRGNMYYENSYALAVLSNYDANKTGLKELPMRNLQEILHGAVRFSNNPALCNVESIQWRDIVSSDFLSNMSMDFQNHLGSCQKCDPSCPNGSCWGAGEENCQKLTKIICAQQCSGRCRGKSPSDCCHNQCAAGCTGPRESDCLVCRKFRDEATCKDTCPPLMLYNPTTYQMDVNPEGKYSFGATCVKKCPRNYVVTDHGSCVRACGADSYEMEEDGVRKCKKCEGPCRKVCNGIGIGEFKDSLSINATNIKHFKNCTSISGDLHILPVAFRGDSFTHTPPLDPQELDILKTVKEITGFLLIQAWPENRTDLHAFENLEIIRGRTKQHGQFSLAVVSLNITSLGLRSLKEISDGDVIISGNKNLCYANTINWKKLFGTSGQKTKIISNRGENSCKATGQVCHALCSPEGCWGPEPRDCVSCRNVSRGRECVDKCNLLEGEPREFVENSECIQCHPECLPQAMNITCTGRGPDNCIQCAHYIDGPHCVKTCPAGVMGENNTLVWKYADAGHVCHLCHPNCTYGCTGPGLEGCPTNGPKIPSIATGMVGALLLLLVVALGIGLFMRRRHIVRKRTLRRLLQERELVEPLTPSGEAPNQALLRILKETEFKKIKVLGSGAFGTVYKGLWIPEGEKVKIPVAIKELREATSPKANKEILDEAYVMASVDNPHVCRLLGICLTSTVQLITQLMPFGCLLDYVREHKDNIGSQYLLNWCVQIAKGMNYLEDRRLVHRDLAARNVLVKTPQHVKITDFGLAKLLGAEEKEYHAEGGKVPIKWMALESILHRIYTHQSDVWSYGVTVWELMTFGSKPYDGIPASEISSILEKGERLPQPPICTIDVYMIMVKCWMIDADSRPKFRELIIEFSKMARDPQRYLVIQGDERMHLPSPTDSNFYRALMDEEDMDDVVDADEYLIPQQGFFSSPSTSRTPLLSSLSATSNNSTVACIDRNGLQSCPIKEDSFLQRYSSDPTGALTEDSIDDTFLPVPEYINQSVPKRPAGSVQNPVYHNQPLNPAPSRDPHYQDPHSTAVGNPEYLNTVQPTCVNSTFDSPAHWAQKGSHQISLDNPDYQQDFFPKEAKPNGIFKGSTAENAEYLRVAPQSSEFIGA
Description: Inhibition of the epidermal growth factor receptor.
Data set [6] deals with Platelet-derived growth factor receptor (Homo sapiens, UniProt P09619+P16234). Kind of data set: Inhibition of the platelet-derived growth factor receptor.
The target of data set [7] is Proto-oncogene tyrosine-protein kinase Src (Homo sapiens, UniProt P12931).
Sequence of Proto-oncogene tyrosine-protein kinase Src (P12931 2-536 limits assumed): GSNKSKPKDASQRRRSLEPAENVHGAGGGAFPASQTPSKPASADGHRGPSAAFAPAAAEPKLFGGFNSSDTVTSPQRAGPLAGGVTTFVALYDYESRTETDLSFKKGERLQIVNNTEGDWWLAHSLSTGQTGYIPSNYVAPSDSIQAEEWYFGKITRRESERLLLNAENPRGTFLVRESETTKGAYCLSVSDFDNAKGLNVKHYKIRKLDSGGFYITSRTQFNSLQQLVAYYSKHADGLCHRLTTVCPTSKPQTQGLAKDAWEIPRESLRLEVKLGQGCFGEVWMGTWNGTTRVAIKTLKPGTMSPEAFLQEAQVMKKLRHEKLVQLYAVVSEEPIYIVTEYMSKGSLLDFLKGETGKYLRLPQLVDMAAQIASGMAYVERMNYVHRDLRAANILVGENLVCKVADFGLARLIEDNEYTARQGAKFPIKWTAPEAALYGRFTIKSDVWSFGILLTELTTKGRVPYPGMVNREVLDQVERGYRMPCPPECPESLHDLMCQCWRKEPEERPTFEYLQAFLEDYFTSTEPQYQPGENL
Description: Inhibition of c-Src-tyrosine kinase.
Data set [8] in a line: Dissociation constant pKa was determined. The format is physicochemical.

The values below come from ChEMBL document CHEMBL1130562, “Potent and selective inhibitors of the Abl-kinase: phenylamino-pyrimidine (PAP) derivatives” (Bioorg Med Chem Lett, 1997).

SMILES strings stand for the structures.

Sequence of Tyrosine-protein kinase ABL1 (P00519 whole entry, looked up): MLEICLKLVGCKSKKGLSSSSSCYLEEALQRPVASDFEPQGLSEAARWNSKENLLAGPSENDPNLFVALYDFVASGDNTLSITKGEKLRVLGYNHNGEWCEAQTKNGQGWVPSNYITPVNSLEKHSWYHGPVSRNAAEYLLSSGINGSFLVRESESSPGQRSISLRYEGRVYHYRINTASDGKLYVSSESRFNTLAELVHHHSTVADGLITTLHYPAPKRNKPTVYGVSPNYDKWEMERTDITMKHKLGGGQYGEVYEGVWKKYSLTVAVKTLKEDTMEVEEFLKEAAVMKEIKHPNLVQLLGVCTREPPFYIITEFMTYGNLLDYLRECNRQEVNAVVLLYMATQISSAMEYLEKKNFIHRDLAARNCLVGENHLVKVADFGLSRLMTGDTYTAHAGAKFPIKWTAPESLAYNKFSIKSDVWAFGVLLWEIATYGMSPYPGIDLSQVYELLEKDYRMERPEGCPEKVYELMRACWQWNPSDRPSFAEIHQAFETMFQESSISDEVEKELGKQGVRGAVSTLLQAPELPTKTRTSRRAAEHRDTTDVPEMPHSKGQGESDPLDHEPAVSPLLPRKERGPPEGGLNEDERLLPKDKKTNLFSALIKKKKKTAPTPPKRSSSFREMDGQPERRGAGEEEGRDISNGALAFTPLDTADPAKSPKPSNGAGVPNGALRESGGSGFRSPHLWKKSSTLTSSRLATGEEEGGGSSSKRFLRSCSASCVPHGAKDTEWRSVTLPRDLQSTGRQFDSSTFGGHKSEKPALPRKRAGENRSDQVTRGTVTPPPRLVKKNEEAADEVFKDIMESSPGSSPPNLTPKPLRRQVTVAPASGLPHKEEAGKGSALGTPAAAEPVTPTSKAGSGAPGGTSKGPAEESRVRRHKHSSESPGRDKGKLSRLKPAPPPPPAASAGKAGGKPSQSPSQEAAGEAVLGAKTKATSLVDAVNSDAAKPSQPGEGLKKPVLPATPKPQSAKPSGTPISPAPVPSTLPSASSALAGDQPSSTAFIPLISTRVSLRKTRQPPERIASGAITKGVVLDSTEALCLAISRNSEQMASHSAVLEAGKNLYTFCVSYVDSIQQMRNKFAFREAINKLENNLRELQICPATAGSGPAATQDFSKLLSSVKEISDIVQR
Sequence of Protein kinase C delta type (Q05655 whole entry): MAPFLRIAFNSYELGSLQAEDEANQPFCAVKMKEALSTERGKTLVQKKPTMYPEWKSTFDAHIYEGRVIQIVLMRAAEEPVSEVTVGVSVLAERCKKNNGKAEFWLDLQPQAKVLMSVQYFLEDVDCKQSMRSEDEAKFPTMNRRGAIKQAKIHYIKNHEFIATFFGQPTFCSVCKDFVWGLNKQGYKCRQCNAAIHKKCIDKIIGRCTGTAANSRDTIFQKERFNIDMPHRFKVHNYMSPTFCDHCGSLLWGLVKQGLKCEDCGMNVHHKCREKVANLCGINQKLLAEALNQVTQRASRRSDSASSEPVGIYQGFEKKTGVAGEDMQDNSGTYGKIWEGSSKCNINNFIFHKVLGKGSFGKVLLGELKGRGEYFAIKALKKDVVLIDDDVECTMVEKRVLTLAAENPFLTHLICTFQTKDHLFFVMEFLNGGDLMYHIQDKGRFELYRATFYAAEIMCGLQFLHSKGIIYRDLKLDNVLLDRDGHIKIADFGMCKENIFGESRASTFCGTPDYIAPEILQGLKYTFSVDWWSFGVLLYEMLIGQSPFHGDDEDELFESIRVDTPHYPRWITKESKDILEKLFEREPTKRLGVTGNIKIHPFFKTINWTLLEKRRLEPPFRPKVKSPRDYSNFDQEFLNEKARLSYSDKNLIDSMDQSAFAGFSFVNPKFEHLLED

The IC50 is the midpoint of a concentration-inhibition curve. For the compound `Cc1ccc(NC(=O)c2ccc3ccccc3c2)cc1Nc1nccc(-c2cccnc2)n1`, the values for the IC50 in data set [1] and in data set [2] were 0.2 µM and above 100 µM, respectively.

Regarding `Cc1ccc(C(=O)Nc2ccc(C)c(Nc3nccc(-c4cccnc4)n3)c2)cc1`, the IC50 in data set [2] is above 100 µM.

As for `Cc1ccc(NC(=O)c2ccccc2)cc1Nc1nccc(-c2cccnc2)n1`, the results for the IC50 in data set [1] and in data set [2] were 0.4 µM and above 500 µM, respectively.

As for `Cc1ccc(NC(=O)c2ccc(Cl)cc2)cc1Nc1nccc(-c2cccnc2)n1`, the figures for the concentration for half-maximal inhibition (IC50) in data set [3], in data set [1] and in data set [2] were above 100 µM, 0.8 µM and above 100 µM, respectively.

In the case of `O=C(Nc1cccc(Nc2nccc(-c3cccnc3)n2)c1)c1ccccc1`, the IC50 in data set [1] is 0.4 µM; in data set [2], above 500 µM.

In the case of `Cc1ccc(N)cc1Nc1nccc(-c2cccnc2)n1`, the values for the concentration for half-maximal inhibition (IC50) in data set [4], in data set [1] and in data set [2] were 240 µM, 1.5 µM and above 500 µM, respectively.

Consider `c1cncc(-c2ccnc(Nc3cccc(-n4ccnc4)c3)n2)c1`, for which the IC50 in data set [5] is above 100 µM; in data set [3], 21 µM; in data set [6], 18 µM; in data set [4], 1 µM; in data set [1], 3.3 µM; in data set [2] it was above 500 µM. In data set [7], this compound returned an IC50 of 1.6 µM.

Turning to `O=C(Nc1cccc(Nc2nccc(-c3cccnc3)n2)c1)c1ccccn1`, the IC50 in data set [6] was above 100 µM; in data set [1], 3.8 µM; in data set [2], above 500 µM; in data set [7], 90 µM.

`NCCCn1ccc2c(-c3ccnc(Nc4cccc(OC(F)(F)C(F)F)c4)n3)cccc21`: the IC50 in data set [5] is 0.53 µM; in data set [3], 4.4 µM; in data set [6], 5 µM; in data set [4], 0.18 µM; in data set [1] it was 0.35 µM; in data set [2], 2 µM. This compound showed an IC50 in data set [7] of 0.5 µM.

On to `COc1ccccc1C(=O)Nc1cccc(Nc2nccc(-c3cccnc3)n2)c1`, for which the IC50 in data set [5] was 100 µM; in data set [3], above 500 µM; in data set [6], 1 µM; in data set [4], 0.32 µM; in data set [1], 1.9 µM; in data set [2], above 500 µM. The same compound yielded an IC50 in data set [7] above 100 µM.

For the compound `Clc1cccc(Nc2nccc(-c3cccnc3)n2)c1`, the IC50 in data set [5] is above 100 µM; in data set [3], 23 µM; in data set [6] it was above 10 µM; in data set [4], 1.6 µM; in data set [1], 1.5 µM; in data set [2], above 500 µM. Further, the IC50 in data set [7] is above 100 µM.

Regarding `COc1ccccc1C(=O)Nc1ccc(C)c(Nc2nccc(-c3cccnc3)n2)c1`, the IC50 in data set [3] was above 100 µM; in data set [4], 80 µM; in data set [1], 0.8 µM; in data set [2], above 500 µM.

One may read the pKa as the negative logarithm of the acid dissociation constant. Read a low pKa as a group that gives up its proton readily. As to `O=C(Nc1cccc(Nc2nccc(-c3cccnc3)n2)c1)c1cccnc1`, the IC50 in data set [5] was above 100 µM; in data set [3], 17 µM; in data set [6] it was 50 µM; in data set [4], 1.7 µM; in data set [1] it was 0.15 µM; in data set [2], above 500 µM. Besides, the IC50 in data set [7] stood at 9 µM. Also, in data set [8], the pKa was found to be 2.56.

In the case of `O=C(Nc1cccc(Nc2nccc(-c3cccnc3)n2)c1)c1ccc(F)cc1`, the IC50 in data set [5] was above 50 µM; in data set [6], 3 µM; in data set [1], 0.2 µM; in data set [2], above 500 µM; in data set [7], above 100 µM.

`CC(=O)Nc1ccc(C)c(Nc2nccc(-c3cccnc3)n2)c1`: the IC50 was 500 µM in data set [4], 5.8 µM in data set [1] and above 500 µM in data set [2].

Consider `FC(F)C(F)(F)Oc1cccc(Nc2nccc(-c3c[nH]c4ccccc34)n2)c1`, for which the IC50 was 1.8 µM in data set [5]; 1.4 µM in data set [3]; above 10 µM in data set [6]; 0.29 µM in data set [4]; 0.37 µM in data set [1]; 73 µM in data set [2]. Further, inhibition in data set [7] was half-maximal at 2.2 µM (IC50).

For `O=C(Nc1cccc(Nc2nccc(-c3cccnc3)n2)c1)c1ccncc1`, the IC50 in data set [5] is above 100 µM; in data set [3] it was 24 µM; in data set [6], above 100 µM; in data set [4] it was 1.3 µM; in data set [1], 0.5 µM; in data set [2], above 500 µM. The IC50 in data set [7] is 78 µM.

With `FC(F)C(F)(F)Oc1cccc(Nc2nccc(-c3ccncc3)n2)c1`, the half-inhibitory concentration (IC50) in data set [5] is above 100 µM; in data set [3] it was above 100 µM; in data set [6] it was above 10 µM; in data set [4], 0.3 µM; in data set [1], above 100 µM; in data set [2] it was above 500 µM. Besides, the IC50 in data set [7] is above 100 µM.

Turning to `O=[N+]([O-])c1cccc(Nc2nccc(-c3ccncc3)n2)c1`, the IC50 was above 100 µM in data set [5]; above 500 µM in data set [3]; above 100 µM in data set [6]; 2.6 µM in data set [4]; 61 µM in data set [1]; above 500 µM in data set [2]. The IC50 in data set [7] is above 100 µM.

For the compound `O=C(O)c1ccccc1C(=O)Nc1cccc(Nc2nccc(-c3cccnc3)n2)c1`, the IC50 in data set [6] is above 100 µM; in data set [1], 2 µM; in data set [2], above 500 µM; in data set [7], 44 µM.

As for `O=[N+]([O-])c1cccc(Nc2nccc(-c3cccnc3)n2)c1`, the concentration for half-maximal inhibition (IC50) in data set [5] was 100 µM; in data set [3], above 500 µM; in data set [6], above 100 µM; in data set [4], 0.79 µM; in data set [1], 34 µM; in data set [2] it was above 500 µM. The IC50 in data set [7] was determined as 93 µM.

Turning to `O=C(Nc1cccc(Nc2nccc(-c3cccnc3)n2)c1)c1cccs1`, the IC50 in data set [5] was above 50 µM; in data set [6], 20 µM; in data set [1], 0.3 µM; in data set [2], above 500 µM; in data set [7] it was 3 µM.

On to `CCCCCC(=O)Nc1cccc(Nc2nccc(-c3cccnc3)n2)c1`, for which the IC50 in data set [5] is above 100 µM; in data set [3] it was 19 µM; in data set [6], 0.6 µM; in data set [4], 2 µM; in data set [1] it was 0.2 µM; in data set [7] it was 3.7 µM.

Turning to `COC(=O)c1cccc(Nc2nccc(-c3cccnc3)n2)c1`, the IC50 in data set [6] was above 10 µM; in data set [1] it was 5.1 µM; in data set [2], above 500 µM; in data set [7] it was 90 µM.

Consider `CN1CCN(Cc2ccc(C(=O)Nc3cccc(Nc4nccc(-c5cccnc5)n4)c3)cc2)CC1`, for which the IC50 in data set [5] is above 100 µM; in data set [6], 0.2 µM; in data set [1], 0.1 µM; in data set [2], 475 µM; in data set [7], 7.8 µM.

Turning to `Nc1cccc(Nc2nccc(-c3ccncc3)n2)c1`, the IC50 in data set [6] was above 10 µM; in data set [1], 0.6 µM; in data set [7], 16 µM.

Consider `Nc1cccc(Nc2nccc(-c3cccnc3)n2)c1`, for which the IC50 in data set [3] was above 500 µM; in data set [6] it was above 100 µM; in data set [4], 210 µM; in data set [1], 0.7 µM; in data set [2], 6 µM; in data set [7], 14 µM.

For `O=C(O)c1cccc(Nc2nccc(-c3cccnc3)n2)c1`, the IC50 in data set [3] was above 100 µM; in data set [6], above 10 µM; in data set [4], 45 µM; in data set [1], 8 µM; in data set [7], 126 µM.

Turning to `FC(F)C(F)(F)Oc1cccc(Nc2nccc(-c3ccc(Cl)cc3)n2)c1`, the IC50 in data set [5] was above 100 µM; in data set [3], above 100 µM; in data set [6], above 10 µM; in data set [4] it was 0.85 µM; in data set [1], above 50 µM; in data set [2] it was above 500 µM. Moreover, the IC50 in data set [7] is above 100 µM.

On to `c1ccc(Nc2nccc(-c3cccnc3)n2)cc1`, for which the IC50 in data set [5] is 100 µM; in data set [3], 39 µM; in data set [6], above 10 µM; in data set [4], 10.5 µM; in data set [1], 1.8 µM; in data set [2], above 500 µM. Further, the IC50 in data set [7] is above 100 µM.

Regarding `O=C(Nc1cccc(Nc2nccc(-c3cccnc3)n2)c1)C1CCCCC1`, the IC50 in data set [5] was above 100 µM; in data set [6] it was 0.8 µM; in data set [1], 0.45 µM; in data set [2] it was above 500 µM; in data set [7] it was 46 µM.

With `c1cc(Nc2nccc(-c3cccnc3)n2)cc(OCCn2ccnc2)c1`, the IC50 in data set [5] is 7.1 µM; in data set [3], 34 µM; in data set [6] it was above 10 µM; in data set [4], 1.5 µM; in data set [1], 1 µM; in data set [2], 340 µM. Also, in data set [7], the IC50 was determined as 4.9 µM.

On to `N#Cc1ccc(C(=O)Nc2cccc(Nc3nccc(-c4cccnc4)n3)c2)cc1`, for which the IC50 was above 100 µM in data set [5]; above 500 µM in data set [3]; 1.5 µM in data set [6]; 0.35 µM in data set [4]; 1.3 µM in data set [1]; above 500 µM in data set [2]. The IC50 in data set [7] is above 100 µM.

In the case of `Cc1ccc(C(=O)Nc2cccc(Nc3nccc(-c4cccnc4)n3)c2)cc1`, the IC50 in data set [5] was above 100 µM; in data set [6], 0.8 µM; in data set [1] it was 1 µM; in data set [2] it was above 500 µM; in data set [7], above 100 µM.

For the compound `NCCCNC(=O)c1cccc(Nc2nccc(-c3cccnc3)n2)c1`, the IC50 in data set [6] is above 10 µM; in data set [1], 0.4 µM; in data set [7], 9.8 µM.

As to `O=[N+]([O-])c1cccc(Nc2nccc(-c3ccccn3)n2)c1`, the IC50 in data set [5] is above 100 µM; in data set [3], above 500 µM; in data set [6] it was above 100 µM; in data set [4] it was 2.5 µM; in data set [1], 1.2 µM; in data set [2], above 500 µM. This compound had an IC50 in data set [7] above 100 µM.
